According to the kinase profiling compilation of Christmann-Franck et al. (2016):

Experiments:
Assay in all cases: KINOMEscan competition binding
Settings in all cases: compound 10.0 µM
ACVR1B (human) = ACVR1B (human) (UniProt P36896)
ALK (human) = ALK (human) (UniProt Q9UM73)
BRAF (human) = BRAF (human) (UniProt P15056)
CDK15 (human) = CDK15 (human) (UniProt Q96Q40)
CDK4 CCND1 (human) = CDK4 CCND1 (human) (UniProt P11802+P24385)
CSNK1A1 (human) = CSNK1A1 (human) (UniProt P48729)
DAPK2 (human) = DAPK2 (human) (UniProt Q9UIK4)
DYRK1A (human) = DYRK1A (human) (UniProt Q13627)
EPHB2 (human) = EPHB2 (human) (UniProt P29323)
ERBB4 (human) = ERBB4 (human) (UniProt Q15303)
GSK3A (human) = GSK3A (human) (UniProt P49840)
IGF1R (human) = IGF1R (human) (UniProt P08069)
IKBKB (human) = IKBKB (human) (UniProt O14920)
IKBKE (human) = IKBKE (human) (UniProt Q14164)
KIT (human) = KIT (human) (UniProt P10721)
[1] = system: KIT (human), P10721 [A829P]
MAK (human) = MAK (human) (UniProt P20794)
MAP3K11 (human) = MAP3K11 (human) (UniProt Q16584)
MAP3K2 (human) = MAP3K2 (human) (UniProt Q9Y2U5)
MAP3K6 (human) = MAP3K6 (human) (UniProt O95382)
MYO3A (human) = MYO3A (human) (UniProt Q8NEV4)
NEK5 (human) = NEK5 (human) (UniProt Q6P3R8)
PDGFRB (human) = PDGFRB (human) (UniProt P09619)
PIK3CG (human) = PIK3CG (human) (UniProt P48736)
PIP4K2B (human) = PIP4K2B (human) (UniProt P78356)
PRKD2 (human) = PRKD2 (human) (UniProt Q9BZL6)
RPS6KA4 KD2 (human) = RPS6KA4 KD2 (human) (UniProt O75676)
RPS6KA5 KD1 (human) = RPS6KA5 KD1 (human) (UniProt O75582)
SIK1 (human) = SIK1 (human) (UniProt P57059)
SRMS (human) = SRMS (human) (UniProt Q9H3Y6)
STK24 (human) = STK24 (human) (UniProt Q9Y6E0)
STK32B (human) = STK32B (human) (UniProt Q9NY57)
STK38L (human) = STK38L (human) (UniProt Q9Y2H1)
TAOK1 (human) = TAOK1 (human) (UniProt Q7L7X3)
[2] = target: TYK2 JH2 pseudokinase (human) (UniProt P29597)

MAP3K2 (human), sequence (Q9Y2U5 whole entry, looked up): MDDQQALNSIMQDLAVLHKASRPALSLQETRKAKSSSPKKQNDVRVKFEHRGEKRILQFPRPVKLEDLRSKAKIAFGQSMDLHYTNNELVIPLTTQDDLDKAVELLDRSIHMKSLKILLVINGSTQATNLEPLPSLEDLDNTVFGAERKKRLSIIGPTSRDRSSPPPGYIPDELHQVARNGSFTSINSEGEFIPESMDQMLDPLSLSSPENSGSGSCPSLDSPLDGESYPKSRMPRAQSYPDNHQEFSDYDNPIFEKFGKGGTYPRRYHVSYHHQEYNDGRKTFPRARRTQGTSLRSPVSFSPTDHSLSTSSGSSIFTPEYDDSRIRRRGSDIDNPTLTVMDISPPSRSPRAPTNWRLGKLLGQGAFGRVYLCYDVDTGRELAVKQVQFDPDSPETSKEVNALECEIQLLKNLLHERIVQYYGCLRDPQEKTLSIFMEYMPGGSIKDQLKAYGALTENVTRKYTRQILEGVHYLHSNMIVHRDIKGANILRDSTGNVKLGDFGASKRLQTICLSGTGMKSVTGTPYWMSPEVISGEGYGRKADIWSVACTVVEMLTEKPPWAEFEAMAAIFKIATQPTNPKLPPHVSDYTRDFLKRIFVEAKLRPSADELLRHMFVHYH
PIK3CG (human), sequence (P48736 whole entry, looked up): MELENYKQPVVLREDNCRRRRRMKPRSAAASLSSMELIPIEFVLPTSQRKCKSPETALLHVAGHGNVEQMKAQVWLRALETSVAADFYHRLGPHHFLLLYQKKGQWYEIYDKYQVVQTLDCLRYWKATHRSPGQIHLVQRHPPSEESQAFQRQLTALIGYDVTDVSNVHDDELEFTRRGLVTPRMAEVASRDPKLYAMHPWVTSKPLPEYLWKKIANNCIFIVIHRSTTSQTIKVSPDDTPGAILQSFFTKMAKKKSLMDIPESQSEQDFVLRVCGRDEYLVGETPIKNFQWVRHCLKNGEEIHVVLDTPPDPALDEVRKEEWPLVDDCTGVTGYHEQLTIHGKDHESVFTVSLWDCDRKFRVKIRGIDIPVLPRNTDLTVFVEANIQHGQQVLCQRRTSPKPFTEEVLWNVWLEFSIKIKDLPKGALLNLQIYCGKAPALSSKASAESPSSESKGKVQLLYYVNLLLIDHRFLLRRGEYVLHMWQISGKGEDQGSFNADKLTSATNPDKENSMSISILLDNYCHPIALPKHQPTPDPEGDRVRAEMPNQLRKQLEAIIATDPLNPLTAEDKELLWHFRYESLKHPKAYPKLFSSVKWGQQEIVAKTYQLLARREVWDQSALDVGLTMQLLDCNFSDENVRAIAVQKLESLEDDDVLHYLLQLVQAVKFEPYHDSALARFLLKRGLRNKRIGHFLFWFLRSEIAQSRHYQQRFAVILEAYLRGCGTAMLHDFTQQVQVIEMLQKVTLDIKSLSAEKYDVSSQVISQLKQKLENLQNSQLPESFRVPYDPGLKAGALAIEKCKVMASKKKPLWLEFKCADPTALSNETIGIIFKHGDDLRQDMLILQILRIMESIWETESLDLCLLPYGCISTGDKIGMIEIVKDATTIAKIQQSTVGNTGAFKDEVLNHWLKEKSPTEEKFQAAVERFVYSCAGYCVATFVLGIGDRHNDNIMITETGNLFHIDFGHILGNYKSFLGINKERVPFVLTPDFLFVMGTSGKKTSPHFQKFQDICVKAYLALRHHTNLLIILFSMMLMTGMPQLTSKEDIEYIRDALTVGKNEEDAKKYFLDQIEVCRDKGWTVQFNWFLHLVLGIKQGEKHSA
KIT (human), sequence (P10721 whole entry, looked up): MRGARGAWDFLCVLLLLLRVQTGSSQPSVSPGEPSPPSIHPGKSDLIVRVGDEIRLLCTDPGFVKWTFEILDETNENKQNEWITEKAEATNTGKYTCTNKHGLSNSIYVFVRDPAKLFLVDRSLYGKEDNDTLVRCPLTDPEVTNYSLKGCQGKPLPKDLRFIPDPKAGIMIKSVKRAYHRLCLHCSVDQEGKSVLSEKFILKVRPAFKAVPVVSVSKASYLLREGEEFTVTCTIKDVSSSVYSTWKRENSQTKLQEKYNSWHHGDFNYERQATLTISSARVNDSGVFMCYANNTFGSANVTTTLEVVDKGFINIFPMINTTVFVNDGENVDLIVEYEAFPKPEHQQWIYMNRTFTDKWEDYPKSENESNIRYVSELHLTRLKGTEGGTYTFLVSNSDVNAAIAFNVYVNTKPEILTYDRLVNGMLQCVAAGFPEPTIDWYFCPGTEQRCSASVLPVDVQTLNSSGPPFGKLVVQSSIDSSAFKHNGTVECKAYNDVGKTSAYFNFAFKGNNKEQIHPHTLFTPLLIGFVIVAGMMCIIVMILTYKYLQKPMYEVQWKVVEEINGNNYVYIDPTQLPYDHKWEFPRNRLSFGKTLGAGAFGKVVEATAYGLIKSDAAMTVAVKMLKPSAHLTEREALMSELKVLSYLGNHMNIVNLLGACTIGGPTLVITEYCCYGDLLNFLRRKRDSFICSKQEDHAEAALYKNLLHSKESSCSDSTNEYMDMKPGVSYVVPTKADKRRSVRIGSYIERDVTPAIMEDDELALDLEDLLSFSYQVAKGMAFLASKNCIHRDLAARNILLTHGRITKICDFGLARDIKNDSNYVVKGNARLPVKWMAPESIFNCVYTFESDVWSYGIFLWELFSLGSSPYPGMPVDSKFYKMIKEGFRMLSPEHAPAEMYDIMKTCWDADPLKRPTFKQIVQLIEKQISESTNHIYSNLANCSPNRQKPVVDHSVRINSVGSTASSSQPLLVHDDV
IKBKE (human), sequence (Q14164 whole entry, looked up): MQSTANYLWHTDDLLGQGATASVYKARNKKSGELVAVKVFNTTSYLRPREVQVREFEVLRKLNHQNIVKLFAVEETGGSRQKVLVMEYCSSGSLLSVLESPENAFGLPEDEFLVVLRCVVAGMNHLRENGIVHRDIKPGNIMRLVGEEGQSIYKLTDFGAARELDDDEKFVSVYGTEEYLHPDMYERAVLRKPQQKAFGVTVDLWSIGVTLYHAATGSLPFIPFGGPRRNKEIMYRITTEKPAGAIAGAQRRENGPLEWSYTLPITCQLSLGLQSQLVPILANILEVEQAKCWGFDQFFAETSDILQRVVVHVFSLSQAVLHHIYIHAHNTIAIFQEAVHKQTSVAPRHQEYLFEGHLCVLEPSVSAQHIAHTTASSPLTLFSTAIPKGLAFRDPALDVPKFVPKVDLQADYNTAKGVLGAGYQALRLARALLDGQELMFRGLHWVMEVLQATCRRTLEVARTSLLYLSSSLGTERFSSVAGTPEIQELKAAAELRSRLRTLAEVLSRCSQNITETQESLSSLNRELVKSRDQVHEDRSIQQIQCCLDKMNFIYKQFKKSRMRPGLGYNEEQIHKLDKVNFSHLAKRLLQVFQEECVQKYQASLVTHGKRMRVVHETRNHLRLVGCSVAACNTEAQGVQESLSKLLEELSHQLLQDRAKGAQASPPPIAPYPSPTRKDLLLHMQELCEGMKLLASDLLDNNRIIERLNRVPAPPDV
NEK5 (human), sequence (Q6P3R8 whole entry, looked up): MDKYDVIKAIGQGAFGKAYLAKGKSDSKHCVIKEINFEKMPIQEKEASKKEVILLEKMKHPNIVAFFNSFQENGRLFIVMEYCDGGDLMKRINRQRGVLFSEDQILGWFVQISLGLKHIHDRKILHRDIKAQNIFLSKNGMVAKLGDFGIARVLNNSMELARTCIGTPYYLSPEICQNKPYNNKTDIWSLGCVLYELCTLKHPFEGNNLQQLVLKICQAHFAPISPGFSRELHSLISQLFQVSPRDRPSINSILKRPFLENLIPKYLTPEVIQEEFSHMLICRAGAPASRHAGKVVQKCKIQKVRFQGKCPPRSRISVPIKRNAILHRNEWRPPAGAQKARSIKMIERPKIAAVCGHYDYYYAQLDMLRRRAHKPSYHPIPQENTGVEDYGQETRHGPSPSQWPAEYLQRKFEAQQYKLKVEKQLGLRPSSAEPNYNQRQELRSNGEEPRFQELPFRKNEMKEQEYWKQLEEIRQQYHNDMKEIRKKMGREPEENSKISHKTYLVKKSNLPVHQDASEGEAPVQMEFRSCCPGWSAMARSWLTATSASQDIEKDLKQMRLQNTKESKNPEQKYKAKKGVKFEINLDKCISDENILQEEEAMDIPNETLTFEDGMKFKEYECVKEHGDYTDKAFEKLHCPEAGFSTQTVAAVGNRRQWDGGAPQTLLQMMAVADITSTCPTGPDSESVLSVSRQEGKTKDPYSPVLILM
BRAF (human), sequence (P15056 whole entry, looked up): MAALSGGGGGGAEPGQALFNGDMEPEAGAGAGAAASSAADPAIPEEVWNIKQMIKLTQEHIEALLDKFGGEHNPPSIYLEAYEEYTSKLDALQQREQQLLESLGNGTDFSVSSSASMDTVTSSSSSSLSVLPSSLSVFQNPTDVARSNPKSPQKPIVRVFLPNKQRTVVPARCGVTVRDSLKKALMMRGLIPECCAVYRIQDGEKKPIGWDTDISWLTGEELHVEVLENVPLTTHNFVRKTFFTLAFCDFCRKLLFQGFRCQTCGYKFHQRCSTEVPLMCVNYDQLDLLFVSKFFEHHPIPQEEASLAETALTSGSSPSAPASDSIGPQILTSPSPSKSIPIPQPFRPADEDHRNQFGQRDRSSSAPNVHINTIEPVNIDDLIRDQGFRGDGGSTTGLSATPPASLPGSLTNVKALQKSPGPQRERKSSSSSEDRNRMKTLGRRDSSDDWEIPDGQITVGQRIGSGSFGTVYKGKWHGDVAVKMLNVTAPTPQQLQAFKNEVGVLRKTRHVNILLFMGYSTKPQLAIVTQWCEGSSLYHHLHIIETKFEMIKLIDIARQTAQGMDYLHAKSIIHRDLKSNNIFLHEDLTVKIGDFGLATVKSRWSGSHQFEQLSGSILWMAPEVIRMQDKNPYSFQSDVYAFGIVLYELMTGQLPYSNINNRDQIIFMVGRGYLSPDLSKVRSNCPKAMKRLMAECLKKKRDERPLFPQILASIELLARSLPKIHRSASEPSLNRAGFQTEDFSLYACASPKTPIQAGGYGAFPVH
KIT (human), P10721 [A829P], sequence (P10721 whole entry A829P, looked up): as the sequence (P10721 whole entry, looked up) above, with A829P counted along it

| Structure (SMILES) | kinase still bound, per cent of control (ACVR1B (human)) [%] | kinase still bound, per cent of control (ALK (human)) [%] | kinase still bound, per cent of control (BRAF (human)) [%] | kinase still bound, per cent of control (CDK15 (human)) [%] | kinase still bound, per cent of control (CDK4 CCND1 (human)) [%] | kinase still bound, per cent of control (CSNK1A1 (human)) [%] | kinase still bound, per cent of control (DAPK2 (human)) [%] | kinase still bound, per cent of control (DYRK1A (human)) [%] | kinase still bound, per cent of control (EPHB2 (human)) [%] | kinase still bound, per cent of control (ERBB4 (human)) [%] | kinase still bound, per cent of control (GSK3A (human)) [%] | kinase still bound, per cent of control (IGF1R (human)) [%] | kinase still bound, per cent of control (IKBKB (human)) [%] | kinase still bound, per cent of control (IKBKE (human)) [%] | kinase still bound, per cent of control (KIT (human)) [%] | kinase still bound, per cent of control [1] [%] | kinase still bound, per cent of control (MAK (human)) [%] | kinase still bound, per cent of control (MAP3K11 (human)) [%] | kinase still bound, per cent of control (MAP3K2 (human)) [%] | kinase still bound, per cent of control (MYO3A (human)) [%] | other results |
| --- | --- | --- | --- | --- | --- | --- | --- | --- | --- | --- | --- | --- | --- | --- | --- | --- | --- | --- | --- | --- | --- |
| CCCS(=O)(=O)Nc1ccc(F)c(C(=O)c2c[nH]c3ncc(Cl)cc23)c1F | 98 | 14 | 0 | 100 | 64 | 84 | 80 | 76 | 100 | 73 | 100 | 91 | 75 | 91 | 0.1 | 67 | 71 | 88 | 62 | 35 | kinase still bound, per cent of control (MAP3K6 (human)): 96%; kinase still bound, per cent of control (NEK5 (human)): 100%; kinase still bound, per cent of control (PDGFRB (human)): 0%; kinase still bound, per cent of control (PIK3CG (human)): 83%; kinase still bound, per cent of control (PIP4K2B (human)): 100%; kinase still bound, per cent of control (PRKD2 (human)): 100%; kinase still bound, per cent of control (RPS6KA4 KD2 (human)): 69%; kinase still bound, per cent of control (RPS6KA5 KD1 (human)): 100%; kinase still bound, per cent of control (SIK1 (human)): 2.6%; kinase still bound, per cent of control (SRMS (human)): 0.05%; kinase still bound, per cent of control (STK24 (human)): 77%; kinase still bound, per cent of control (STK32B (human)): 100%; kinase still bound, per cent of control (STK38L (human)): 71%; kinase still bound, per cent of control (TAOK1 (human)): 52%; kinase still bound, per cent of control [2]: 100% |
| COc1cc2c(Nc3ccc(NC(=O)c4ccccc4)cc3)ncnc2cc1OCCCN1CCOCC1 | 100 | 26 | 100 | 68 | 93 | 63 | 90 | 58 | 100 | 0.65 | 100 | 100 | 100 | 62 | 0 | 59 | 59 | 20 | 28 | 79 | kinase still bound, per cent of control (MAP3K6 (human)): 100%; kinase still bound, per cent of control (NEK5 (human)): 100%; kinase still bound, per cent of control (PDGFRB (human)): 1.1%; kinase still bound, per cent of control (PIK3CG (human)): 100%; kinase still bound, per cent of control (PIP4K2B (human)): 100%; kinase still bound, per cent of control (PRKD2 (human)): 100%; kinase still bound, per cent of control (RPS6KA4 KD2 (human)): 100%; kinase still bound, per cent of control (RPS6KA5 KD1 (human)): 100%; kinase still bound, per cent of control (SIK1 (human)): 82%; kinase still bound, per cent of control (SRMS (human)): 2.4%; kinase still bound, per cent of control (STK24 (human)): 46%; kinase still bound, per cent of control (STK32B (human)): 100%; kinase still bound, per cent of control (STK38L (human)): 100%; kinase still bound, per cent of control (TAOK1 (human)): 95%; kinase still bound, per cent of control [2]: 83% |
| N#C/C(=C1/Nc2ccccc2S1)c1ccnc(NCCc2cccnc2)n1 | 84 | 100 | 14 | 86 | 32 | 9.8 | 34 | 0 | 100 | 63 | 0.6 | 100 | 68 | 100 | 31 | 73 | 100 | 93 | 100 | 80 | kinase still bound, per cent of control (MAP3K6 (human)): 100%; kinase still bound, per cent of control (NEK5 (human)): 100%; kinase still bound, per cent of control (PDGFRB (human)): 64%; kinase still bound, per cent of control (PIK3CG (human)): 50%; kinase still bound, per cent of control (PIP4K2B (human)): 26%; kinase still bound, per cent of control (PRKD2 (human)): 100%; kinase still bound, per cent of control (RPS6KA4 KD2 (human)): 57%; kinase still bound, per cent of control (RPS6KA5 KD1 (human)): 100%; kinase still bound, per cent of control (SIK1 (human)): 100%; kinase still bound, per cent of control (SRMS (human)): 2.4%; kinase still bound, per cent of control (STK24 (human)): 80%; kinase still bound, per cent of control (STK32B (human)): 100%; kinase still bound, per cent of control (STK38L (human)): 100%; kinase still bound, per cent of control (TAOK1 (human)): 38%; kinase still bound, per cent of control [2]: 1.4% |
| CCN(CCO)CCCOc1ccc2c(Nc3cc(CC(=O)Nc4cccc(F)c4)[nH]n3)ncnc2c1 | 88 | 98 | 100 | 88 | 92 | 49 | 89 | 100 | 93 | 4 | 100 | 100 | 91 | 51 | 0 | 50 | 92 | 100 | 87 | 81 | kinase still bound, per cent of control (NEK5 (human)): 100%; kinase still bound, per cent of control (PDGFRB (human)): 0%; kinase still bound, per cent of control (PIK3CG (human)): 100%; kinase still bound, per cent of control (PIP4K2B (human)): 100%; kinase still bound, per cent of control (PRKD2 (human)): 80%; kinase still bound, per cent of control (RPS6KA4 KD2 (human)): 79%; kinase still bound, per cent of control (RPS6KA5 KD1 (human)): 100%; kinase still bound, per cent of control (SIK1 (human)): 88%; kinase still bound, per cent of control (SRMS (human)): 29%; kinase still bound, per cent of control (STK24 (human)): 43%; kinase still bound, per cent of control (STK32B (human)): 100%; kinase still bound, per cent of control (STK38L (human)): 100%; kinase still bound, per cent of control (TAOK1 (human)): 59%; kinase still bound, per cent of control [2]: 98% |
